# According to patent US20230391768A2, “IMIDAZOPYRIDINE DERIVATIVES AND AZA-IMIDAZOPYRIDINE DERIVATIVES AS JANUS KINASE 2 INHIBITORS AND USES THEREOF” (Dana-Farber Cancer Institute, Inc., priority 2018, published 2023):
# Key:
# Assay in all cases: KINOMEscan
# Assay type in all cases: binding
# Details in all cases: read-out: percent of control
# ABL2 = ABL2 (Homo sapiens (Human), UniProt P42684)
# Method: (§1) In vitro profiling of Compound I-2 (1 μM) was performed using the DiscoveRx KINOMEscan® platform.
# PAK1 = PAK1 (Homo sapiens (Human), UniProt Q13153)
# Method: as §1
# HIPK1 = HIPK1 (Homo sapiens (Human), UniProt Q86Z02)
# Method: as §1
# CAMK2B = CAMK2B (Homo sapiens (Human), UniProt Q13554)
# Method: as §1
# ERK2 = ERK2 (Homo sapiens (Human), UniProt P28482)
# Method: as §1
# YES = YES (Homo sapiens (Human), UniProt P07947)
# YES, sequence (P07947 whole entry): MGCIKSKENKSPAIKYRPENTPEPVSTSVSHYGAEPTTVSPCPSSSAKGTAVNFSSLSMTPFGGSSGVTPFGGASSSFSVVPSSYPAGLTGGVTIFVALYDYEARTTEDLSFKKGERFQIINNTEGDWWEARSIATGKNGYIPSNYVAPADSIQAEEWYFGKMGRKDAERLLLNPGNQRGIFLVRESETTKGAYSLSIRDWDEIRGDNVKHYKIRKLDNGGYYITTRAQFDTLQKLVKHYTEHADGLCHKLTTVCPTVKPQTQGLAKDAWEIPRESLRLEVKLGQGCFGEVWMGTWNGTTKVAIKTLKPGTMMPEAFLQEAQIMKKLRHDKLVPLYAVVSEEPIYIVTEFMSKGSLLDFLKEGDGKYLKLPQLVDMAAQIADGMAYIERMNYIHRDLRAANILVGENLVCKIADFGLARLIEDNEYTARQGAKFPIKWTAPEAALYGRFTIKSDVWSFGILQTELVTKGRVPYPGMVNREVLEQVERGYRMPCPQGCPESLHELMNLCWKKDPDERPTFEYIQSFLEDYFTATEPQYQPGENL
# Method: as §1
# [1] = target: ABL1(M351T)-phosphorylated (Homo sapiens (Human), UniProt P00519, M351T)
# Method: as §1
# PHKG2 = PHKG2 (Homo sapiens (Human), UniProt P15735)
# Method: as §1
# CSK = CSK (Homo sapiens (Human), UniProt P41240)
# CSK, sequence (P41240 whole entry): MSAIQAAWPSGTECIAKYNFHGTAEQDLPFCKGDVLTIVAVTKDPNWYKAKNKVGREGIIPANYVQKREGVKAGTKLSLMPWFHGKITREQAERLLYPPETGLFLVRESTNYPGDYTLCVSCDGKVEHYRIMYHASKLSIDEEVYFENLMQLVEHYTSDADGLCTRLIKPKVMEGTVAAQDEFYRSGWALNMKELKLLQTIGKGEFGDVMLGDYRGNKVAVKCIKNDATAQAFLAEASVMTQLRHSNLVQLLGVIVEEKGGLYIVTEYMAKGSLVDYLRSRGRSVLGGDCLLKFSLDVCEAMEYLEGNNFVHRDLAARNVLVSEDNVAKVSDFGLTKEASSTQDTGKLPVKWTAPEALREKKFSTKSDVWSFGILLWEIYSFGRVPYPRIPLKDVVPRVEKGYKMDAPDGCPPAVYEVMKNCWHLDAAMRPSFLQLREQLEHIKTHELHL
# Method: as §1
# TSSK3 = TSSK3 (Homo sapiens (Human), UniProt Q96PN8)
# Method: as §1
# [2] = target: ABL1(F317L)-phosphorylated (Homo sapiens (Human), UniProt P00519, F317L)
# Method: as §1
# NEK5 = NEK5 (Homo sapiens (Human), UniProt Q6P3R8)
# Method: as §1
# BRK = BRK (Homo sapiens (Human), UniProt Q13882)
# Method: as §1
# HUNK = HUNK (Homo sapiens (Human), UniProt P57058)
# Method: as §1
# FLT1 = FLT1 (Homo sapiens (Human), UniProt P17948)
# Method: as §1
# ERBB4 = ERBB4 (Homo sapiens (Human), UniProt Q15303)
# Method: as §1
# CDK4 = CDK4 (Homo sapiens (Human), UniProt P11802)
# Method: as §1
# MAP4K4 = MAP4K4 (Homo sapiens (Human), UniProt O95819)
# Method: as §1
# WEE1 = WEE1 (Homo sapiens (Human), UniProt P30291)
# WEE1, sequence (P30291 whole entry): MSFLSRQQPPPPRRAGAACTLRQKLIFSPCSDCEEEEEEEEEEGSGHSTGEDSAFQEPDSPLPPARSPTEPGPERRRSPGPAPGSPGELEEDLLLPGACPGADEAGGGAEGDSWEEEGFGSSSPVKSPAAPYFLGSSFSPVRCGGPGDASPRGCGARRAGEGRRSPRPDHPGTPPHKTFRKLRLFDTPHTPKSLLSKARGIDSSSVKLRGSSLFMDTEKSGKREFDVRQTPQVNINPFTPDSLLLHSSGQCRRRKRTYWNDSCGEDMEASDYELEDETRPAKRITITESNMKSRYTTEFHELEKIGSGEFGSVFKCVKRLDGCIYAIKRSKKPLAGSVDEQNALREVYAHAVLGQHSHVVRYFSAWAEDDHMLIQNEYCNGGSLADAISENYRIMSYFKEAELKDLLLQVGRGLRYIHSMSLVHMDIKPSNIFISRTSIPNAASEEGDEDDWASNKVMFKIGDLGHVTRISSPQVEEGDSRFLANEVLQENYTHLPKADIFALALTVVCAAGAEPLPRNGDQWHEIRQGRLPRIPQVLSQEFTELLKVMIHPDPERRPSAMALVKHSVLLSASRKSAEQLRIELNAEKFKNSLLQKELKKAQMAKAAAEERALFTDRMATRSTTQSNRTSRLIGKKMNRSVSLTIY
# Method: as §1
# MST3 = MST3 (Homo sapiens (Human), UniProt Q9Y6E0)
# MST3, sequence (Q9Y6E0 whole entry): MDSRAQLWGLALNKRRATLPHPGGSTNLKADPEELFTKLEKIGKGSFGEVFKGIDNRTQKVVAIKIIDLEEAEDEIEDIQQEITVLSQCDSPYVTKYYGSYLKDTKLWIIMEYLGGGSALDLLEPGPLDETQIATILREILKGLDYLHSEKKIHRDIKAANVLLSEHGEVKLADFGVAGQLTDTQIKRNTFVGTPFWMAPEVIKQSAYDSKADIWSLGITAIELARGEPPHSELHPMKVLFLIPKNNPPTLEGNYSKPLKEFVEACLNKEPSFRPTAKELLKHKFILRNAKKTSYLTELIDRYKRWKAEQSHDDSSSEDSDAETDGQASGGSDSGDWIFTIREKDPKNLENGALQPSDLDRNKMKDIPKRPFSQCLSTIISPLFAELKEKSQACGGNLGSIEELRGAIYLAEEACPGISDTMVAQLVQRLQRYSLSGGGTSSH
# Method: as §1
# PKN1 = PKN1 (Homo sapiens (Human), UniProt Q16512)
# Method: as §1
# [3] = target: RPS6KA4 (Kin.Dom.1-N-terminal) (Homo sapiens (Human), UniProt O75676)
# RPS6KA4 (Kin.Dom.1-N-terminal), sequence (O75676 33-301): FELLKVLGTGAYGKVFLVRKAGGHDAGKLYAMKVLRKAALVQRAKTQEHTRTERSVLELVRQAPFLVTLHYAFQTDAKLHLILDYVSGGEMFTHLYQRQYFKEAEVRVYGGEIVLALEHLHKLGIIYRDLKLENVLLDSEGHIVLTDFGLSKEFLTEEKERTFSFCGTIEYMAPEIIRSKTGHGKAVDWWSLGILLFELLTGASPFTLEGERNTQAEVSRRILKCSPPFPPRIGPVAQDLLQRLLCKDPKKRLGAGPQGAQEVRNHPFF
# Method: as §1
# RET (M918T) = RET (M918T) (Homo sapiens (Human), UniProt P07949, M918T)
# Method: as §1
# EPHB6 = EPHB6 (Homo sapiens (Human), UniProt O15197)
# Method: as §1
# PAK4 = PAK4 (Homo sapiens (Human), UniProt O96013)
# PAK4, sequence (O96013 whole entry): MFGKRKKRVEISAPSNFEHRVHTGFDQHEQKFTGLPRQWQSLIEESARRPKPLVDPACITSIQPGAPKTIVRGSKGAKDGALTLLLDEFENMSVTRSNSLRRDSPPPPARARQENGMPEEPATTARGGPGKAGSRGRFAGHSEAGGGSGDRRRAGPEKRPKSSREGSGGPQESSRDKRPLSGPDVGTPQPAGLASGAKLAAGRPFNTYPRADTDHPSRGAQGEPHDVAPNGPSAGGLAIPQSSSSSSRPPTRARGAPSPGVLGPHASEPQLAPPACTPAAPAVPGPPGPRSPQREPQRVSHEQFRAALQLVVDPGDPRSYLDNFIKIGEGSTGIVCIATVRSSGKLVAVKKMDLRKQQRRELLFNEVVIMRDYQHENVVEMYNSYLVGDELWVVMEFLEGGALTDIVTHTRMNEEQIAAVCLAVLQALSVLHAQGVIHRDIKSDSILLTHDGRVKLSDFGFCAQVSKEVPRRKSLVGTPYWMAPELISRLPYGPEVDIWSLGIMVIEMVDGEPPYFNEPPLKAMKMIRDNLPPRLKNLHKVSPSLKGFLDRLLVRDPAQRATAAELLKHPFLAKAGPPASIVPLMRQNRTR
# Method: as §1
# BTK = BTK (Homo sapiens (Human), UniProt Q06187)
# Method: as §1
# BLK = BLK (Homo sapiens (Human), UniProt P51451)
# Method: as §1
# JNK1 = JNK1 (Homo sapiens (Human), UniProt P45983)
# Method: as §1
# LATS1 = LATS1 (Homo sapiens (Human), UniProt O95835)
# Method: as §1
# PKAC-beta = PKAC-beta (Homo sapiens (Human), UniProt P22694)
# Method: as §1
# KIT(D816H) = KIT(D816H) (Homo sapiens (Human), UniProt P10721, D816H)
# Method: as §1
# TEC = TEC (Homo sapiens (Human), UniProt P42680)
# Method: as §1
# AXL = AXL (Homo sapiens (Human), UniProt P30530)
# AXL, sequence (P30530 26-894): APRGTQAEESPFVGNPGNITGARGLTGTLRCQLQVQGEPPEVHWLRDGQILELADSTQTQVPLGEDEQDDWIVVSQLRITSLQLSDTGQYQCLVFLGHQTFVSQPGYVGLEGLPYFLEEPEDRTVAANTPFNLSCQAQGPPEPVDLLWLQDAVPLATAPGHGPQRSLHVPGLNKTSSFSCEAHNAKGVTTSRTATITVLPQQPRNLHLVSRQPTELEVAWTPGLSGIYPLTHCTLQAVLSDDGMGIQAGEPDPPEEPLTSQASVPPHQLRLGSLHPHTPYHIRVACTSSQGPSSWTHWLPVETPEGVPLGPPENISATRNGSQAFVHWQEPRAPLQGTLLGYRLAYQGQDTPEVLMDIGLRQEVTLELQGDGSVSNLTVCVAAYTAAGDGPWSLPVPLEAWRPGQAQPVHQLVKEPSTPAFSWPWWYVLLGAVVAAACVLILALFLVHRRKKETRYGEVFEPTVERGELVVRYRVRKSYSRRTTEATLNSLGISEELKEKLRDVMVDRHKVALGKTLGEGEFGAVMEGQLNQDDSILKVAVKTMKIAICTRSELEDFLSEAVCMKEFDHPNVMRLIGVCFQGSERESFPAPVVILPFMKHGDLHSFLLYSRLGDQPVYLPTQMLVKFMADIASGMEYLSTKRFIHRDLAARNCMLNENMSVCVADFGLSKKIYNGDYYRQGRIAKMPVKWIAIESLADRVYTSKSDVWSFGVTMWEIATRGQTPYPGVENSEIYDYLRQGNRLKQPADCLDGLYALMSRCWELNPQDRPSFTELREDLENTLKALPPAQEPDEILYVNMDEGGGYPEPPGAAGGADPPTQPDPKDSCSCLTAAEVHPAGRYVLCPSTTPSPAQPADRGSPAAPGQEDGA
# Method: as §1
# GCN2(Kin.Dom.2,S808G) = GCN2(Kin.Dom.2,S808G) (Homo sapiens (Human), UniProt Q9P2K8, S808G)
# Method: as §1
# PIM1 = PIM1 (Homo sapiens (Human), UniProt P11309)
# Method: as §1
# HCK = HCK (Homo sapiens (Human), UniProt P08631)
# Method: as §1
# FLT3 (N841I) = FLT3 (N841I) (Homo sapiens (Human), UniProt P36888, N841I)
# Method: as §1
# EGFR(G719C) = EGFR(G719C) (Homo sapiens (Human), UniProt P00533, G719C)
# Method: as §1
# ABL2, sequence (P42684 whole entry): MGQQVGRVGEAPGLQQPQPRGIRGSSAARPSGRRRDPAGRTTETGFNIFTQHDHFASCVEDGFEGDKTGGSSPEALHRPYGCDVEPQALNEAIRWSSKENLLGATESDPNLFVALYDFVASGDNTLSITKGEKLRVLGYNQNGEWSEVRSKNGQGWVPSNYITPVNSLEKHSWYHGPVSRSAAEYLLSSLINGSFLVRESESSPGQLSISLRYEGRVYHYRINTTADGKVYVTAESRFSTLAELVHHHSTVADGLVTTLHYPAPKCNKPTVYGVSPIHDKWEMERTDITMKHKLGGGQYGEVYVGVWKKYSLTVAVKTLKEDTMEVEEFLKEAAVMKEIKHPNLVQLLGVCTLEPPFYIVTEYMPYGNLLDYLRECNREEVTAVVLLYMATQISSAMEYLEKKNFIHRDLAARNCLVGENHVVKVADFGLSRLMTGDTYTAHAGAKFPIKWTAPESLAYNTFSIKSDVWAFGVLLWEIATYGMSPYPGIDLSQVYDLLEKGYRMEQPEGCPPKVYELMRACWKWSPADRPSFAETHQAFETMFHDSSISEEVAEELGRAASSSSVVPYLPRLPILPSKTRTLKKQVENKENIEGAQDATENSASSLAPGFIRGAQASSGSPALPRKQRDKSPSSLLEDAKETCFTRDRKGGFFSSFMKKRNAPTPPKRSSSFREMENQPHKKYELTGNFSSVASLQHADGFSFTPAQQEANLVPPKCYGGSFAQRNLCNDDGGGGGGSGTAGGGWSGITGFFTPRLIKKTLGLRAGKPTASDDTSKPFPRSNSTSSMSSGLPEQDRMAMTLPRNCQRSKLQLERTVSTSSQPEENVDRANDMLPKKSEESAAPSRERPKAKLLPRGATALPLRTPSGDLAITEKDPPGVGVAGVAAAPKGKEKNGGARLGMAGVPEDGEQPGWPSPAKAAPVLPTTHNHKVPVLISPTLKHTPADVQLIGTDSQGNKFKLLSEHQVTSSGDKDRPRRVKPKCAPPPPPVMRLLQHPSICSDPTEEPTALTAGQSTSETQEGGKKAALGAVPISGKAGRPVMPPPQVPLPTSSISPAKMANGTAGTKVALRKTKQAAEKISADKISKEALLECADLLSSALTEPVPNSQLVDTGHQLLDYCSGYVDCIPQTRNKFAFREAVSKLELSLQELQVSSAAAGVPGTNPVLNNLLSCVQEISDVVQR
structure (smiles),measurement,setting,value
"CCN1CCN(Cc2cc(NC(=O)c3ccc(C)c(-c4ccc5nc(NC(=O)C6CC6)cn5n4)c3)cc(C(F)(F)F)c2)CC1 [Compound I-2, 3-(2-(cyclopropanecarboxamido)imidazo[1,2-b]pyridazin-6-yl)-N-(3-((4-ethylpiperazin-1-yl)methyl)-5-(trifluoromethyl)phenyl)-4-methylbenzamide]",remaining binding at 1 µM,ABL2,0.4%
same,remaining binding at 1 µM,PAK1,81%
same,remaining binding at 1 µM,HIPK1,62%
same,remaining binding at 1 µM,CAMK2B,100%
same,remaining binding at 1 µM,ERK2,100%
same,remaining binding at 1 µM,YES,4.7%
same,remaining binding at 1 µM,[1],0.8%
same,remaining binding at 1 µM,PHKG2,93%
same,remaining binding at 1 µM,CSK,39%
same,remaining binding at 1 µM,TSSK3,100%
same,remaining binding at 1 µM,[2],1.1%
same,remaining binding at 1 µM,NEK5,89%
same,remaining binding at 1 µM,BRK,100%
same,remaining binding at 1 µM,HUNK,80%
same,remaining binding at 1 µM,FLT1,3.2%
same,remaining binding at 1 µM,ERBB4,71%
same,remaining binding at 1 µM,CDK4,46%
same,remaining binding at 1 µM,MAP4K4,0.15%
same,remaining binding at 1 µM,WEE1,94%
same,remaining binding at 1 µM,MST3,85%
same,remaining binding at 1 µM,PKN1,98%
same,remaining binding at 1 µM,[3],50%
same,remaining binding at 1 µM,RET (M918T),0.05%
same,remaining binding at 1 µM,EPHB6,78%
same,remaining binding at 1 µM,PAK4,96%
same,remaining binding at 1 µM,BTK,68%
same,remaining binding at 1 µM,BLK,0.75%
same,remaining binding at 1 µM,JNK1,96%
same,remaining binding at 1 µM,LATS1,87%
same,remaining binding at 1 µM,PKAC-beta,92%
same,remaining binding at 1 µM,KIT(D816H),38%
same,remaining binding at 1 µM,TEC,100%
same,remaining binding at 1 µM,AXL,2.1%
same,remaining binding at 1 µM,"GCN2(Kin.Dom.2,S808G)",82%
same,remaining binding at 1 µM,PIM1,90%
same,remaining binding at 1 µM,HCK,0%
same,remaining binding at 1 µM,FLT3 (N841I),0%
same,remaining binding at 1 µM,EGFR(G719C),53%
"CCN1CCN(Cc2cc(NC(=O)c3ccc(C)c(-c4ccc5nc(NC(=O)C6CC6)cn5c4)c3)cc(C(F)(F)F)c2)CC1 [Compound I-6, 3-(2-(cyclopropanecarboxamido)imidazo[1,2-a]pyridin-6-yl)-N-(3-((4-ethylpiperazin-1-yl)methyl)-5-(trifluoromethyl)phenyl)-4-methylbenzamide]",remaining binding at 1 µM,ABL2,0.4%
same,remaining binding at 1 µM,PAK1,78%
same,remaining binding at 1 µM,HIPK1,96%
same,remaining binding at 1 µM,CAMK2B,100%
same,remaining binding at 1 µM,ERK2,100%
same,remaining binding at 1 µM,YES,1.6%
same,remaining binding at 1 µM,[1],0.5%
same,remaining binding at 1 µM,PHKG2,98%
same,remaining binding at 1 µM,CSK,21%
same,remaining binding at 1 µM,TSSK3,91%
same,remaining binding at 1 µM,[2],1.3%
same,remaining binding at 1 µM,NEK5,100%
same,remaining binding at 1 µM,BRK,91%
same,remaining binding at 1 µM,HUNK,96%
same,remaining binding at 1 µM,FLT1,3.2%
same,remaining binding at 1 µM,ERBB4,53%
same,remaining binding at 1 µM,CDK4,36%
same,remaining binding at 1 µM,MAP4K4,0.75%
same,remaining binding at 1 µM,WEE1,100%
same,remaining binding at 1 µM,MST3,92%
same,remaining binding at 1 µM,PKN1,98%
same,remaining binding at 1 µM,[3],66%
same,remaining binding at 1 µM,RET (M918T),0%
same,remaining binding at 1 µM,EPHB6,64%
same,remaining binding at 1 µM,PAK4,96%
same,remaining binding at 1 µM,BTK,87%
same,remaining binding at 1 µM,BLK,0.2%
same,remaining binding at 1 µM,JNK1,96%
same,remaining binding at 1 µM,LATS1,85%
same,remaining binding at 1 µM,PKAC-beta,78%
same,remaining binding at 1 µM,KIT(D816H),29%
same,remaining binding at 1 µM,TEC,100%
same,remaining binding at 1 µM,AXL,3.9%
same,remaining binding at 1 µM,"GCN2(Kin.Dom.2,S808G)",97%
same,remaining binding at 1 µM,PIM1,93%
same,remaining binding at 1 µM,HCK,0.05%
same,remaining binding at 1 µM,FLT3 (N841I),0%
same,remaining binding at 1 µM,EGFR(G719C),46%
